This is an account of results in US4293489A, “Derivatives of A-30912A nucleus” (Eli Lilly and Company, priority 1980, dated 1981).

SMILES strings stand for the structures. Converted amounts (≈) assume the structure as drawn. Read-outs that look alike come from different tables or passages of the source. Starred links: 1 amine or outer side, 2 acyl side, 3 side chain; linkers in the order of their positions; H or OH if unused. Positions of bridges follow the written chain, without caps; N, C: chain ends. Non-standard residues stand in square brackets, D forms with d. Residues, ends and D or L forms follow the SMILES beside them. *: point of attachment. Orn(4R-OH,5R-OH) = O=C([C@H](C[C@@H](O)[C@@H](O)N[*:3])N[*:1])[*:2]; hTyr(3S-OH,4S-OH) = N[C@H](C(=O)O)[C@H](O)[C@@H](O)c1ccc(O)cc1; Pro(3S-OH,4S-Me) = C[C@H]1CN[C@H](C(=O)O)[C@H]1O; Benzoyl(4-octyloxy) = CCCCCCCCOc1ccc(C(=O)*)cc1; X2 = CCCCCCCCCCCCCCS(=O)(=O)c1ccc(C(=O)*)cc1; X5 = CCCCCCCCCCCCS(=O)(=O)c1ccc(C(=O)*)cc1; X4 = CCCCCCCCCCS(=O)(=O)c1ccc(C(=O)*)cc1; X3 = CCCCCCCCCCCCCCSc1ccc(C(=O)*)cc1; X1 = CCCCCCCCCCCCSc1ccc(C(=O)*)cc1; Hyp = O=C(O)[C@@H]1C[C@@H](O)CN1; X8 = CCCCCCCCCOc1ccc(C(=O)*)cc1

For experiment [1], the system named is Candida albicans A-26. The experiment can be described thus: Agar dilution method, MIC. The class given is cell-based. The procedure:
(§1) Tables 10 and 11 give the results of the testing in vitro of the compounds of Examples 3 and 4 by agar-plate disc-diffusion methods. In Table 10 activity is measured by the size (diameter in mm) of the observed zone of inhibition of the microorganism produced by the test compound. In Table 11, activity is measured by the minimal inhibitory concentration (MIC) of the substance (μg/disc) required to inhibit growth of the test organism. Table 12 gives the results of the testing in vitro of the p-(n-octyloxy)benzoyl derivative of A30912A nucleus [Formula III, R^1 is p-(n-octyloxy)benzoyl] against five strains of Candida albicans by the agar dilution method. In Table 12 activity is measured by the minimal inhibitory concentration (MIC) of the substance (μg/ml) required to inhibit the test organism.

Another experiment has as its system Candida albicans SBH16. The experiment can be described thus: Agar dilution method, MIC. The class given is cell-based. How it is done:
as §1
(In agar dilution, organisms are placed on agar that contains the substance at set levels.)

The subject of the next experiment is Candida albicans SBH28. The experiment can be described thus: Agar dilution method, MIC. The class given is cell-based. The procedure:
as §1

A further experiment concerns Candida albicans SBH29. The experiment is described as follows: Agar dilution method, MIC. The class given is cell-based. The procedure: as §1
The next experiment concerns Candida albicans SBH31. The experiment can be described thus: Agar dilution method, MIC. The experiment is classed as cell-based. The procedure: as §1
For experiment [2], the system named is Saccharomyces pastoranius X-52. The experiment can be described thus: Agar plate disc diffusion test, zone of inhibition. The experiment is classed as cell-based, Saccharomyces pastorianus. How it is done:
as §1
(§2) ^(a) Compounds were tested as suspension in methanol. The compounds
(§3) were tested at a concentration of 1 mg/ml. by dipping a 7mm disc into the
(§4) suspension and placing it on the agar surface. Incubation: 24-48 hours at
(§5) *Measurable zone of inhibition with regrowth of organism around disc.
On the technique in general: In agar diffusion tests the substance spreads into inoculated agar from a disc or well.

In experiment [3] the test system is Candida albicans A-26. The experiment can be described thus: Agar plate disc diffusion test, zone of inhibition. The experiment is classed as cell-based. As to conditions: 1 mg/ml suspension in methanol, 7mm disc; 24-48 hours at 25-37° C. The procedure:
as §1, §2, §3, §4, §5

Another experiment relates to Neurospora crassa 846. The experiment can be described thus: Agar plate disc diffusion test, zone of inhibition. The class given is cell-based. The procedure: as §1, §2, §3, §4, §5
The subject of experiment [4] is Trichophyton mentagraphytes A-23. The experiment can be described thus: Agar plate disc diffusion test, zone of inhibition. The experiment is classed as cell-based, Trichophyton mentagrophytes. The procedure: as §1, §2, §3, §4, §5
The mark [5] stands for this setting: X52, 1 mg/ml suspension in methanol, 7mm disc, 24-48 hours at 25-37° C., read-out: Size of Zone of Inhibition.
Where [6] appears, read: Neurospora crassa, 846, 1 mg/ml suspension in methanol, 7mm disc, 24-48 hours at 25-37° C., read-out: Size of Zone of Inhibition.
[7] abbreviates: A23, 1 mg/ml suspension in methanol, 7mm disc, 24-48 hours at 25-37° C., read-out: Size of Zone of Inhibition.

On to `CCCCCCCCCOc1ccc(C(=O)N[C@H]2C[C@@H](O)[C@@H](O)NC(=O)[C@@H]3[C@@H](O)[C@@H](C)CN3C(=O)[C@H]([C@@H](C)O)NC(=O)[C@H]([C@H](O)[C@@H](O)c3ccc(O)cc3)NC(=O)[C@@H]3C[C@@H](O)CN3C(=O)[C@H]([C@@H](C)O)NC2=O)cc1` (X8-[Orn(4R-OH,5R-OH)]T[Hyp][hTyr(3S-OH,4S-OH)]T[Pro(3S-OH,4S-Me)]; lactam 1-C), for which the minimal inhibitory concentration (MIC) in the experiment with Candida albicans A-26 [1] (A26), against Candida albicans SBH16 (SBH16), against Candida albicans SBH28 (SBH28), in the experiment on Candida albicans SBH29 (SBH29) and in the experiment with Candida albicans SBH31 (SBH31) was 0.312 µg/mL (≈ 0.299 µM) each time.
Consider `CCCCCCCCOc1ccc(C(=O)N[C@H]2C[C@@H](O)[C@@H](O)NC(=O)[C@@H]3[C@@H](O)[C@@H](C)CN3C(=O)[C@H]([C@@H](C)O)NC(=O)[C@H]([C@H](O)[C@@H](O)c3ccc(O)cc3)NC(=O)[C@@H]3C[C@@H](O)CN3C(=O)[C@H]([C@@H](C)O)NC2=O)cc1` [drawing 108] ({Benzoyl(4-octyloxy)}-[Orn(4R-OH,5R-OH)]T[Hyp][hTyr(3S-OH,4S-OH)]T[Pro(3S-OH,4S-Me)]; lactam 1-C), for which the zone of inhibition (commonly the extent of the growth-free halo in a diffusion test) at 1000 µg/mL in experiment [2] (setting [5]) turned out to be 18 mm; with Neurospora crassa 846 (Neurospora crassa, 846, read-out: Size of Zone of Inhibition), 23 mm. Besides, the “Size of Zone of Inhibition” value in the experiment on Candida albicans A-26 [3] is recorded as 28 mm.
For `CCCCCCCCCCS(=O)(=O)c1ccc(C(=O)N[C@H]2C[C@@H](O)[C@@H](O)NC(=O)[C@@H]3[C@@H](O)[C@@H](C)CN3C(=O)[C@H]([C@@H](C)O)NC(=O)[C@H]([C@H](O)[C@@H](O)c3ccc(O)cc3)NC(=O)[C@@H]3C[C@@H](O)CN3C(=O)[C@H]([C@@H](C)O)NC2=O)cc1` [drawing 112] (X4-[Orn(4R-OH,5R-OH)]T[Hyp][hTyr(3S-OH,4S-OH)]T[Pro(3S-OH,4S-Me)]; lactam 1-C), the zone of inhibition at 1000 µg/mL stood at 16 mm in experiment [2] (setting [5]), 31 mm in the experiment on Neurospora crassa 846 (setting [6]) and 32 mm in experiment [4] (setting [7]). For the same compound, the “Size of Zone of Inhibition” value in the experiment on Candida albicans A-26 [3] stood at 55 mm.
In the case of `CCCCCCCCCCCCS(=O)(=O)c1ccc(C(=O)N[C@H]2C[C@@H](O)[C@@H](O)NC(=O)[C@@H]3[C@@H](O)[C@@H](C)CN3C(=O)[C@H]([C@@H](C)O)NC(=O)[C@H]([C@H](O)[C@@H](O)c3ccc(O)cc3)NC(=O)[C@@H]3C[C@@H](O)CN3C(=O)[C@H]([C@@H](C)O)NC2=O)cc1` [drawing 113] (X5-[Orn(4R-OH,5R-OH)]T[Hyp][hTyr(3S-OH,4S-OH)]T[Pro(3S-OH,4S-Me)]; lactam 1-C), the “Size of Zone of Inhibition” value in the experiment on Candida albicans A-26 [3] stood at 48 mm. Also, the zone of inhibition at 1000 µg/mL with Neurospora crassa 846 (setting [6]) stood at 37 mm; in experiment [4] (setting [7]), 26 mm.
`CCCCCCCCCCCCCCS(=O)(=O)c1ccc(C(=O)N[C@H]2C[C@@H](O)[C@@H](O)NC(=O)[C@@H]3[C@@H](O)[C@@H](C)CN3C(=O)[C@H]([C@@H](C)O)NC(=O)[C@H]([C@H](O)[C@@H](O)c3ccc(O)cc3)NC(=O)[C@@H]3C[C@@H](O)CN3C(=O)[C@H]([C@@H](C)O)NC2=O)cc1` [drawing 114] (X2-[Orn(4R-OH,5R-OH)]T[Hyp][hTyr(3S-OH,4S-OH)]T[Pro(3S-OH,4S-Me)]; lactam 1-C): the zone of inhibition at 1000 µg/mL in experiment [2] (X52, read-out: Size of Zone of Inhibition) worked out at 23 mm; with Neurospora crassa 846 (setting [6]), 29 mm; in experiment [4] (A23, read-out: Size of Zone of Inhibition) it was 23 mm. For the same compound, in the experiment on Candida albicans A-26 [3], the “Size of Zone of Inhibition” value is 30 mm.
As for `CCCCCCCCCCCCSc1ccc(C(=O)N[C@H]2C[C@@H](O)[C@@H](O)NC(=O)[C@@H]3[C@@H](O)[C@@H](C)CN3C(=O)[C@H]([C@@H](C)O)NC(=O)[C@H]([C@H](O)[C@@H](O)c3ccc(O)cc3)NC(=O)[C@@H]3C[C@@H](O)CN3C(=O)[C@H]([C@@H](C)O)NC2=O)cc1` [drawing 149] (X1-[Orn(4R-OH,5R-OH)]T[Hyp][hTyr(3S-OH,4S-OH)]T[Pro(3S-OH,4S-Me)]; lactam 1-C), the MIC in the experiment on Candida albicans A-26 [1] (A26), against Candida albicans SBH16 (SBH16), against Candida albicans SBH28 (SBH28), in the experiment with Candida albicans SBH29 (SBH29) and against Candida albicans SBH31 (SBH31) was 0.625 µg/mL (≈ 0.567 µM) each time.
`CCCCCCCCCCCCCCSc1ccc(C(=O)N[C@H]2C[C@@H](O)[C@@H](O)NC(=O)[C@@H]3[C@@H](O)[C@@H](C)CN3C(=O)[C@H]([C@@H](C)O)NC(=O)[C@H]([C@H](O)[C@@H](O)c3ccc(O)cc3)NC(=O)[C@@H]3C[C@@H](O)CN3C(=O)[C@H]([C@@H](C)O)NC2=O)cc1` [drawing 150] (X3-[Orn(4R-OH,5R-OH)]T[Hyp][hTyr(3S-OH,4S-OH)]T[Pro(3S-OH,4S-Me)]; lactam 1-C): the MIC (as a rule, the lowest concentration found to suppress growth) came to 2.5 µg/mL (≈ 2.21 µM) in the experiment with Candida albicans A-26 [1] (A26, strain A-26, agar dilution, read-out: MIC); 2.5 µg/mL (≈ 2.21 µM) in the experiment on Candida albicans SBH16 (strain SBH16, agar dilution, read-out: MIC); 2.5 µg/mL (≈ 2.21 µM) in the experiment on Candida albicans SBH28 (strain SBH28, agar dilution, read-out: MIC); 2.5 µg/mL (≈ 2.21 µM) with Candida albicans SBH29 (strain SBH29, agar dilution, read-out: MIC); 2.5 µg/mL (≈ 2.21 µM) in the experiment with Candida albicans SBH31 (strain SBH31, agar dilution, read-out: MIC).
